Source: patent publication US7501417B2, “Aminocarbonyl-derivatives as novel inhibitors of histone deacetylase” (Janssen Pharmaceutica, N.V., priority 2002, dated 2009)
≈ marks a conversion by molar mass, not a printed value.

Columns and labels:
[1] = molecular target: HDAC (HeLa nuclear extracts); test: In vitro assay for inhibition of histone deacetylase; assay type: biochemical; settings: [3H]acetylated histone H4 peptide substrate
Protocol: The in vitro assay for inhibition of histone deacetylase (see example C.1) measures the inhibition of HDAC enzymatic activity obtained with the compounds of formula (I).
HeLa nuclear extracts (supplier: Biomol) were incubated at 60 μg/ml with 2×10^−8 M of radiolabeled peptide substrate. As a substrate for measuring HDAC activity a synthetic peptide, i.e. the amino acids 14-21 of histone H4, was used. The substrate is biotinylated at the NH2-terminal part with a 6-aminohexanoic acid spacer, and is protected at the COOH-terminal part by an amide group and specifically [^3H]acetylated at lysine 16. The substrate, biotin-(6-aminohexanoic)Gly-Ala-([^3H]-acetyl-Lys-Arg -His-Arg-Lys-Val-NH2), was added in a buffer containing 25 mM Hepes, 1 M sucrose, 0.1 mg/ml BSA and 0.01% Triton X-100 at pH 7.4. After 30 min the deacetylation reaction was terminated by the addition of HCl and acetic acid. (final concentration 0.035 mM and 3.8 mM respectively). After stopping the reaction, the free ^3H-acetate was extracted with ethylacetate. After mixing and centrifugation, the radioactivity in an aliquot of the upper (organic) phase was counted in a β-counter.
For each experiment, controls (containing HeLa nuclear extract and DMSO without compound), a blank incubation (containing DMSO but no HeLa nuclear extract or compound) and samples (containing compound dissolved in DMSO and HeLa nuclear extract) were run in parallel. In first instance, compounds were tested at a concentration of 10^−5M. […] In each test the blank value was subtracted from both the control and the sample values. The control sample represented 100% of substrate deactylation. For each sample the radioactivity was expressed as a percentage of the mean value of the controls. […] Herein the effects of test compounds are expressed as pIC50 (the negative log value of the IC50-value).

[2] = tested on: A2780 ovarian carcinoma cells; test: Determination of antiproliferative activity on A2780 cells (MTT); assay type: cell-based; settings: Homo sapiens, 96 h, four days of incubation, read-out: Cellular activity pIC50 (converted)
Protocol: Cellular activity of the compounds of formula (I) was determined on A2780 tumour cells using a colorimetric assay for cell toxicity or survival (Mosmann Tim, Journal of Immunological Methods 65: 55-63, 1983)(see example C.2).
All compounds tested were dissolved in DMSO and further dilutions were made in culture medium. Final DMSO concentrations never exceeded 0.1% (v/v) in cell proliferation assays. Controls contained A2780 cells and DMSO without compound and blanks contained DMSO but no cells. MTT was dissolved at 5 mg/ml in PBS. A glycine buffer comprised of 0.1 M glycine and 0.1 M NaCl buffered to pH 10.5 with NaOH (1 N) was prepared (all reagents were from Merck).
The human A2780 ovarian carcinoma cells (a kind gift from Dr. T. C. Hamilton [Fox Chase Cancer Centre, Pennsylvania, USA]) were cultured in RPMI 1640 medium supplemented with 2 mM L-glutamine, 50 μg/ml gentamicin and 10% fetal calf serum. Cells were routinely kept as monolayer cultures at 37° C. in a humidified 5% CO2 atmosphere. Cells were passaged once a week using a trypsin/EDTA solution at a split ratio of 1:40. All media and supplements were obtained from Life Technologies. Cells were free of mycoplasma contamination as determined using the Gen-Probe Mycoplasma Tissue Culture kit (supplier: BioMérieux).
Cells were seeded in NUNC™ 96-well culture plates (Supplier: Life Technologies) and allowed to adhere to the plastic overnight. Densities used for plating were 1500 cells per well in a total volume of 200 μl medium. After cell adhesion to the plates, medium was changed and drugs and/or solvents were added to a final volume of 200 μl. Following four days of incubation, medium was replaced by 200 μl fresh medium and cell density and viability was assessed using an MTT-based assay. To each well, 25 μl MTT solution was added and the cells were further incubated for 2 hours at 37° C. The medium was then carefully aspirated and the blue MTT-formazan product was solubilized by addition of 25 μl glycine buffer followed by 100 μl of DMSO. […] Within an experiment, the results for each experimental condition are the mean of 3 replicate wells. For initial screening purposes, compounds were tested at a single fixed concentration of 10^−6 M. For active compounds, the experiments were repeated to establish full concentration-response curves. For each experiment, controls (containing no drug) and a blank incubation (containing no cells or drugs) were run in parallel. The blank value was subtracted from all control and sample values. For each sample, the mean value for cell growth (in absorbance units) was expressed as a percentage of the mean value for cell growth of the control. […] Herein the effects of test compounds are expressed as pIC50 (the negative log value of the IC50-value).

[3] = Kinetic solubility in aqueous media (nephelometry); assay type: physicochemical; settings: aqueous buffer, kinetic from dmso stock; phosphate citrate buffer pH 7.4, turbidity of three dilution steps; read-out: Solubility Score
Protocol: Kinetic solubility in aqueous media measures the ability of a compound to stay in aqueous solution upon dilution (see example C.3).
DMSO-stock solutions are diluted with a single aqueous buffer solvent in 3 consecutive steps. For every dilution turbidity is measured with a nephelometer.
In the first dilution step, 10 μl of a concentrated stock-solution of the active compound, solubilized in DMSO (5 mM), was added to 100 μl phosphate citrate buffer pH 7.4 and mixed. In the second dilution step, an aliquot (20 μl) of the first dilution step was further dispensed in 100 μl phosphate citrate buffer pH 7.4 and mixed. Finally, in the third dilution step, a sample (20 μl) of the second dilution step was further diluted in 100 μl phosphate citrate buffer pH 7.4 and mixed. All dilutions were performed in 96-well plates. Immediately after the last dilution step the turbidity of the three consecutive dilution steps were measured with a nephelometer. Dilution was done in triplicate for each compound to exclude occasional errors. Based on the turbidity measurements a ranking is performed into 3 classes. Compounds with high solubility obtained a score of 3 and for this compounds the first dilution is clear. Compounds with medium solubility obtained a score of 2. For these compounds the first dilution is unclear and the second dilution is clear. […] The solubility of 3 compounds was measured.

Cc1ccc(NC(=O)N2CCN(c3ccc(C(=O)NO)cc3)CC2)cc1 [Co. No. 1]
Enzyme activity pIC50 [1]: 6.754
IC50 [2]: 4700 nM
solubility [3]: < 75.8 µM

Cc1ccc(NC(=O)N2CCN(c3ccc(C(=O)NCCO)cc3)CC2)cc1 [Co. No. 2]
Enzyme activity pIC50 [1]: <5
IC50 [2]: > 10000 nM

Cc1ccc(NC(=O)N2CCN(c3ccc(NC(=O)CS)cc3)CC2)cc1 [Co. No. 3]
Enzyme activity pIC50 [1]: 5.332
IC50 [2]: > 10000 nM

O=C(NO)c1cnc(N2CCN(C(=O)N(c3ccccc3)c3ccccc3)CC2)nc1 [Co. No. 4]
Enzyme activity pIC50 [1]: 7.127
IC50 [2]: 769 nM

O=C(NCC1CCN(c2ncc(C(=O)NO)cn2)CC1)Nc1ccc(-c2ccccc2)cc1 [Co. No. 5]
Enzyme activity pIC50 [1]: 7.65
IC50 [2]: 711 nM
solubility [3]: 75.8 to 454 µM (≈ 33.8 to 203 µg/mL)
melting point: > 260 °C

O=C(NO)c1cnc(N2CCN(C(=O)Nc3ccc(-c4ccccc4)cc3)CC2)nc1 [Co. No. 6]
Enzyme activity pIC50 [1]: 7.728
IC50 [2]: 277 nM
solubility [3]: > 454 µM
melting point: > 260 °C

Cc1cccc(C)c1NC(=O)N1CCN(c2ccc([N+](=O)[O-])cc2C(=O)NO)CC1 [compound 30]
Enzyme activity pIC50 [1]: >5

CN(C(=O)N1CCN(c2ncc(C(=O)NO)cn2)CC1)c1ccccc1 [compound 48]
Enzyme activity pIC50 [1]: 7.163
IC50 [2]: 723 nM
